The source of these data is patent US20120302569A1, “PHENYL-THIAZOLYL INHIBITORS OF PRO-MATRIX METALLOPROTEINASE ACTIVATION” (priority 2011, published 2012).

For orientation: IC50 means the concentration needed to halve the response being measured.

In assay [1] the target is T1, full-length proMMP9(1-707) (SEQ ID NO:1) (Homo sapiens, UniProt P14780, R574P).
T1 construct: made in house; host or cells: HEK293 (proMMP9, secreted); E. coli (MMP3)
In words: proMMP9/MMP3 P126 Activation Assay. Format: biochemical. Particulars: proMMP9(1-707) from HEK293 cells activated by catalytic MMP3. The procedure: proMMP9/MMP3 P126 Activation Assay
The reaction volume was 50 μL. […] Reactivity of residual MMP3 towards P-126 substrate was minimal under these conditions.

The target in assay [2] is T2, proMMP9(20-445;ΔFnII) (SEQ ID NO:6) (Homo sapiens, UniProt P14780, DEL216-390).
T2 construct: start methionine (N); made in house; host or cells: E. coli BL21(DE3) RIL
T2 sequence (P14780 with tags, fused parts or gaps DEL216-390): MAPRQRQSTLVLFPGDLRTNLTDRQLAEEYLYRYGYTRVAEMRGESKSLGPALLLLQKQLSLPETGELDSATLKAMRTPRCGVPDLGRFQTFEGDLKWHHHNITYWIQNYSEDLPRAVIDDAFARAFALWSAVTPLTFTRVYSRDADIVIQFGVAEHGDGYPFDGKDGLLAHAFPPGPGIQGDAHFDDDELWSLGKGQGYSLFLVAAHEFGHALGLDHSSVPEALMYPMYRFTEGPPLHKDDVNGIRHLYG
The assay can be described thus: ThermoFluor with proMMP9(20-445;ΔFnII). The following applies: read-out: proMMP9(20-445; ΔFnII) (SEQ ID NO: 6) binding. The protocol:
(§1) The ThermoFluor® (TF) assay is a 384-well plate-based binding assay that measures thermal stability of proteins (Biomol Screen 2001, 6, 429-40; Biochemistry 2005, 44, 5258-66). The experiments were carried out using instruments available from Johnson & Johnson Pharmaceutical Research & Development, LLC. TF dye used in all experiments was […] (1,8-ANS) (Invitrogen: A-47).
(§2) Compounds were arranged in a pre-dispensed plate (Greiner Bio-one: 781280), wherein compounds were serially diluted in 100% DMSO across 11 columns within a series. Columns 12 and 24 were used as DMSO reference and contained no compound. For multiple compound concentration-response experiments, the compound aliquots (50 nL) were robotically predispensed directly into black 384-well polypropylene PCR microplates (Abgene: TF-0384/k) using a Cartesian Hummingbird liquid handler (DigiLab, Holliston, Mass.). Following compound dispense, protein and dye solutions were added to achieve the final assay volume of 3 μL. The assay solutions were overlayed with 1 μL of silicone oil (Fluka, type DC 200: 85411) to prevent evaporation.
(§3) Assay plates were robotically loaded onto a thermostatically controlled PCR-type thermal block and then heated from 40 to 90° C. at a ramp-rate of 1° C./min for all experiments. Fluorescence was measured by continuous illumination with UV light (Hamamatsu LC6) supplied via fiber optics and filtered through a band-pass filter (380-400 nm; >6 OD cutoff). Fluorescence emission of the entire 384-well plate was detected by measuring light intensity using a CCD camera (Sensys, Roper Scientific) filtered to detect 500±25 nm, resulting in simultaneous and independent readings of all 384 wells. A single image with 20-sec exposure time was collected at each temperature, and the sum of the pixel intensity in a given area of the assay plate was recorded vs temperature and fit to standard equations to yield the Tm (J Biomol Screen 2001, 6, 429-40).
(§4) Thermodynamic parameters necessary for fitting compound binding for each proMMP were estimated by differential scanning calorimetry (DSC) and from ThermoFluor® data. The heat capacity of unfolding for each protein was estimated from the molecular weight and from ThermoFluor® dosing data.
ThermoFluor® with proMMP9(20-445;ΔFnII) (SEQ ID NO:6)
The protein sample preparations included a desalting buffer exchange step via a PD-10 gravity column (GE Healthcare). The desalting buffer exchange was performed prior to diluting the protein to the final assay concentration of 2.8 μM proMMP9(20-445;ΔFnII) (SEQ ID NO:6). The concentration of proMMP9(20-445;ΔFnII) (SEQ ID NO:6) was determined spectrophotometrically based on a calculated extinction coefficient of ε280=39880 M^−1cm^−1, a calculated molecular weight of 28.2 kDa, and calculated pI of 5.5. ThermoFluor® reference conditions were define as follows: 80 μg/mL (2.8 μM) proMMP9(20-445;ΔFnII) (SEQ ID NO:6), 50 μM 1,8-ANS, pH 7.0 Buffer (50 mM HEPES pH 7.0, 100 mM NaCl, 0.001% Tween-20, 2.5 mM MgCl2, 300 μM CaCl2). The thermodynamic parameters for proMMP9(20-445;ΔFnII) (SEQ ID NO:6) are as follows: Tm (° C.)=72 (+/−0.1), ΔUH(Tm) (cal mol^−1)=160000(+/−5000), ΔUS(Tm) (cal mol^−1 K^−1)=434, ΔUCp (cal mol^−1 K^−1)=2400.
In general terms: DSF heats the sample and reads unfolding from a dye or from intrinsic fluorescence.

In assay [3] the target is T3, proMMP9(67-444;ΔFnII) (SEQ ID NO:5) (Homo sapiens, UniProt P14780, DEL216-390).
T3 construct: start methionine (N); made in house; host or cells: E. coli BL21(DE3) RIL
T3 sequence (P14780 with tags, fused parts or gaps DEL216-390): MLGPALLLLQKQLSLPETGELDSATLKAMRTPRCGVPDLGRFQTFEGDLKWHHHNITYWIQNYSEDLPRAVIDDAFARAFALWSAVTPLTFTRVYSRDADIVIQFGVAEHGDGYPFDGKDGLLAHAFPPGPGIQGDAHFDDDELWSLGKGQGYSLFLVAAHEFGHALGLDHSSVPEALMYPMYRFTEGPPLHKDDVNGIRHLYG
The assay can be described thus: ThermoFluor with proMMP9(67-444;ΔFnII). The following applies: read-out: proMMP9(67-444; ΔFnII) (SEQ ID NO: 5) binding. The procedure: as §1, §2, §3, §4
ThermoFluor® with proMMP9(67-444;ΔFnII) (SEQ ID NO:5)
The protein sample preparations had to include a desalting buffer exchange step via a PD-10 gravity column (GE Healthcare). The desalting buffer exchange was performed prior to diluting the protein to the final assay concentration of 3.5 μM proMMP9(67-444;ΔFnII) (SEQ ID NO:5). The concentration of proMMP9(67-444;ΔFnII) (SEQ ID NO:5) was determined spectrophotometrically based on a calculated extinction coefficient of ε280=33900 M^−1cm^−1, a calculated molecular weight of 22.6 kDa, and calculated pI of 5.20. ThermoFluor® reference conditions were defined as follows: 80 μg/mL (3.5 μM) proMMP9(67-444;ΔFnII) (SEQ ID NO:5), 50 μM 1,8-ANS, pH 7.0 Buffer (50 mM HEPES pH 7.0, 100 mM NaCl, 0.001% Tween-20, 2.5 mM MgCl2, 300 μM CaCl2). The thermodynamic parameters for proMMP9(67-444;ΔFnII) (SEQ ID NO:5) are as follows: Tm (° C.)=63 (+/−0.1), ΔUH(Tm) (cal mol^−1)=105000(+/−5000), ΔUS(Tm) (cal mol^−1 K^−1)=450, […].

Counter-ions that a name gives are not always drawn. A value given as a limit tells only on which side of the number the result lay.

T1 sequence (P14780 20-707 R574P): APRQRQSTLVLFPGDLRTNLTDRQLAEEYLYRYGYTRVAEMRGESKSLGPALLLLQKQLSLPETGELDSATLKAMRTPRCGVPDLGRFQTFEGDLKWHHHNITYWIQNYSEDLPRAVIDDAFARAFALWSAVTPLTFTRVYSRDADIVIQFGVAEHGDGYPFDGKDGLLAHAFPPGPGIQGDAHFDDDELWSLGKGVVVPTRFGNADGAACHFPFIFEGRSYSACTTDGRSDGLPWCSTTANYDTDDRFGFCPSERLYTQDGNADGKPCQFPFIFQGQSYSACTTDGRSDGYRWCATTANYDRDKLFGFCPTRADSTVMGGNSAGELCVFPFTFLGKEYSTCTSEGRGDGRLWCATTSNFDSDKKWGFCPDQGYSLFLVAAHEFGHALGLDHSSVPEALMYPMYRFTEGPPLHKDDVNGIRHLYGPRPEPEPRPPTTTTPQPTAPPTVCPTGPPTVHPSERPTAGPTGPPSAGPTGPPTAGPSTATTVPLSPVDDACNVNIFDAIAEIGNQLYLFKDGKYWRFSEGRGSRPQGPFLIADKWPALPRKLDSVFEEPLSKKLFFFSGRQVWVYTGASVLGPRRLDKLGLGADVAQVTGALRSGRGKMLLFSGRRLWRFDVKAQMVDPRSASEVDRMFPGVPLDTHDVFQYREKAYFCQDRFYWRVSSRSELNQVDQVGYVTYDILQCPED

Regarding `CCN1CC=C(c2ccc(-c3csc(Nc4cc(S(N)(=O)=O)ccc4OC(C)C)n3)cc2)CC1` [Example 14, 3-((4-(4-(1-Ethyl-1,2,3,6-tetrahydropyridin-4-yl)phenyl)thiazol-2-yl)amino)-4-isopropoxybenzenesulfonamide.TFA], in assay [1], the IC50 stood at 34 nM.

In the case of `CC(C)Oc1ccc(C(N)=O)cc1Nc1nc(-c2ccc(CN3CCC(F)CC3)cc2)cs1` [Example 54, 3-((4-(4-((4-fluoropiperidin-1-yl)methyl)phenyl)thiazol-2-yl)amino)-4-isopropoxybenzamide.TFA], the Kd amounted to 31 nM in assay [2] and 110 nM in assay [3]. In assay [1], this molecule registered an IC50 of 95 nM.

Take `COc1ccncc1Nc1nc(-c2ccc(OCCN3CCC(F)CC3)cc2)cs1` [Example 35, 4-(4-(2-(4-fluoropiperidin-1-yl)ethoxy)phenyl)-N-(4-methoxypyridin-3-yl)thiazol-2-amine.TFA]: the Kd in assay [2] was 4300 nM; in assay [3], 1000 nM. The same molecule came in with an IC50 in assay [1] of 780 nM.

Take `COc1ccc(F)cc1Nc1nc(-c2ccc(OCCN3CCN(C4CC4)CC3)cc2)cs1` [Example 70, 4-(4-(2-(4-cyclopropylpiperazin-1-yl)ethoxy)phenyl)-N-(5-fluoro-2-methoxyphenyl)thiazol-2-amine.TFA]: the Kd in assay [2] was over 76000 nM; in assay [3], 2100 nM. Also, the IC50 in assay [1] was determined as 480 nM.

On to `COc1ccc(F)cc1Nc1nc(-c2ccc(CN3CC[C@@H](F)C3)cc2)cs1` [Example 61, (R)—N-(5-fluoro-2-methoxyphenyl)-4-(4-((3-fluoropyrrolidin-1-yl)methyl)phenyl)thiazol-2-amine.TFA], for which the Kd was 53000 nM in assay [2] and 5600 nM in assay [3]. Moreover, in assay [1], the half-inhibitory concentration (IC50) is 1500 nM.

Consider `CC(C)Oc1ccc(C(N)=O)cc1Nc1nc(-c2ccc(N3CCN(C)CC3)cc2)cs1` [Example 8, 4-Isopropoxy-3-((4-(4-(4-methylpiperazin-1-yl)phenyl)thiazol-2-yl)amino)benzamide.TFA], for which the Kd in assay [2] is 29 nM; in assay [3], 67 nM. Also, 110 nM corresponded to half-maximal inhibition in assay [1] (IC50).

For the molecule `CCOc1ccncc1Nc1nc(-c2ccc(OCCN3CCC(F)CC3)cc2)cs1` [Example 36, N-(4-ethoxypyridin-3-yl)-4-(4-(2-(4-fluoropiperidin-1-yl)ethoxy)phenyl)thiazol-2-amine.TFA], the results for the Kd in assay [2] and in assay [3] were 1800 nM and 96 nM, respectively. For the same molecule, the half-inhibitory concentration (IC50) in assay [1] came to 92 nM.

Consider `CC(C)Oc1ccc(S(N)(=O)=O)cc1Nc1nc(-c2ccc(C3CCNCC3)cc2)cs1` [Example 24, 4-Isopropoxy-3-((4-(4-(piperidin-4-yl)phenyl)thiazol-2-yl)amino)benzenesulfonamide.TFA], for which the IC50 in assay [1] came out at 130 nM. That is a sub-micromolar value.

Take `COc1ccc(F)cc1Nc1nc(-c2ccc(CN3CCN(C(C)C)CC3)cc2)cs1` [Example 63, N-(5-fluoro-2-methoxyphenyl)-4-(4-((4-isopropylpiperazin-1-yl)methyl)phenyl)thiazol-2-amine.TFA]: the Kd was determined as 4600 nM in assay [2] and 960 nM in assay [3]. Besides, the midpoint of inhibition in assay [1], the IC50, lay at 250 nM.

For the molecule `COc1cc(C)c(C(N)=O)cc1Nc1nc(-c2ccc(OCCN3CCC(F)CC3)cc2)cs1` [Example 39, 5-((4-(4-(2-(4-fluoropiperidin-1-yl)ethoxy)phenyl)thiazol-2-yl)amino)-4-methoxy-2-methylbenzamide.TFA], the Kd worked out at 550 nM in assay [2] and 640 nM in assay [3]. In assay [1], this molecule had an IC50 of 720 nM.

Consider `COc1ccc(F)cc1Nc1nc(-c2ccc(CN3CCN(C4CC4)CC3)cc2)cs1` [Example 60, 4-(4-((4-cyclopropylpiperazin-1-yl)methyl)phenyl)-N-(5-fluoro-2-methoxyphenyl)thiazol-2-amine.TFA], for which the Kd in assay [2] came out at 35000 nM; in assay [3] it was 9400 nM. In assay [1], half-maximal inhibition (IC50) was put at 930 nM.

On to `NS(=O)(=O)c1ccc(OC(F)(F)F)c(Nc2nc(-c3ccc(OCCN4CCC(F)(F)CC4)cc3)cs2)c1` [Example 33, 3-((4-(4-(2-(4,4-difluoropiperidin-1-yl)ethoxy)phenyl)thiazol-2-yl)amino)-4-(trifluoromethoxy)benzenesulfonamide.TFA], for which the figures for the Kd in assay [2] and in assay [3] were 1300 nM and 650 nM, respectively. In addition, the IC50 in assay [1] is 16000 nM.

Take `CC(C)Oc1ccc(C(N)=O)cc1Nc1nc(-c2ccc(OCCN3CCOCC3)cc2)cs1` [Example 29, 4-Isopropoxy-3-((4-(4-(2-morpholinoethoxy)phenyl)thiazol-2-yl)amino)benzamide.TFA]: the Kd came to 28 nM in assay [2] and 100 nM in assay [3]. Besides, inhibition in assay [1] was half-maximal at 150 nM (IC50).

`CCOc1ccncc1Nc1nc(-c2ccc(C3=CCN(C)CC3)cc2)cs1` [Example 21, N-(4-Ethoxypyridin-3-yl)-4-(4-(1-methyl-1,2,3,6-tetrahydropyridin-4-yl)phenyl)thiazol-2-amine]: the figures for the Kd in assay [2] and in assay [3] were 400 nM and over 76000 nM, respectively. In assay [1], this molecule came in with an IC50 of 57 nM.

As for `CC(C)Oc1ccc(S(N)(=O)=O)cc1Nc1nc(-c2ccc(N3CCN(C(C)C)CC3)cc2)cs1` [Example 5, 4-Isopropoxy-3-((4-(4-(4-isopropylpiperazin-1-yl)phenyl)thiazol-2-yl)amino)benzenesulfonamide.TFA], the IC50 in assay [1] turned out to be 130 nM.

For `CC(C)Oc1ccc(S(N)(=O)=O)cc1Nc1nc(-c2ccc(C3CCN(C(C)C)CC3)cc2)cs1` [Example 27, 4-Isopropoxy-3-((4-(4-(1-isopropylpiperidin-4-yl)phenyl)thiazol-2-yl)amino)benzenesulfonamide.TFA], the IC50 in assay [1] amounted to 64 nM.
